In ChEMBL document CHEMBL5696442, “Discovery of type II inhibitors of TGFβ-activated kinase 1 (TAK1) and mitogen-activated protein kinase kinase kinase kinase 2 (MAP4K2)” (J Med Chem, 2015):
The source made the active and inactive calls. The rule behind the calls is not given here.

Legend:
[1] = molecular target: Serine/threonine-protein kinase MARK2 (Homo sapiens) (UniProt Q7KZI7); assay: Inhibition of MARK2 Lys1 labeling site harbouring HILTGKEVAVKIIDKTQLNSSSLQK in human Huh-7 cell lysate at 1 uM by KiNativ Profiling analysis relative to control; type: subcellular
[2] = molecular target: 5'-AMP-activated protein kinase catalytic subunit alpha-2 (Homo sapiens) (UniProt P54646); assay: Inhibition of AMPKa2 Lys1 labeling site in human Huh-7 cell lysate at 1 uM by KiNativ Profiling analysis relative to control; type: subcellular
[3] = molecular target: T1, Serine/threonine-protein kinase TAO2 (Homo sapiens) (UniProt Q9UL54); assay: Inhibition of TAO2 Lys2 labeling site in human Huh-7 cells at 1 uM by KiNativ Profiling analysis relative to control; type: cell-based
T1 sequence (whole entry): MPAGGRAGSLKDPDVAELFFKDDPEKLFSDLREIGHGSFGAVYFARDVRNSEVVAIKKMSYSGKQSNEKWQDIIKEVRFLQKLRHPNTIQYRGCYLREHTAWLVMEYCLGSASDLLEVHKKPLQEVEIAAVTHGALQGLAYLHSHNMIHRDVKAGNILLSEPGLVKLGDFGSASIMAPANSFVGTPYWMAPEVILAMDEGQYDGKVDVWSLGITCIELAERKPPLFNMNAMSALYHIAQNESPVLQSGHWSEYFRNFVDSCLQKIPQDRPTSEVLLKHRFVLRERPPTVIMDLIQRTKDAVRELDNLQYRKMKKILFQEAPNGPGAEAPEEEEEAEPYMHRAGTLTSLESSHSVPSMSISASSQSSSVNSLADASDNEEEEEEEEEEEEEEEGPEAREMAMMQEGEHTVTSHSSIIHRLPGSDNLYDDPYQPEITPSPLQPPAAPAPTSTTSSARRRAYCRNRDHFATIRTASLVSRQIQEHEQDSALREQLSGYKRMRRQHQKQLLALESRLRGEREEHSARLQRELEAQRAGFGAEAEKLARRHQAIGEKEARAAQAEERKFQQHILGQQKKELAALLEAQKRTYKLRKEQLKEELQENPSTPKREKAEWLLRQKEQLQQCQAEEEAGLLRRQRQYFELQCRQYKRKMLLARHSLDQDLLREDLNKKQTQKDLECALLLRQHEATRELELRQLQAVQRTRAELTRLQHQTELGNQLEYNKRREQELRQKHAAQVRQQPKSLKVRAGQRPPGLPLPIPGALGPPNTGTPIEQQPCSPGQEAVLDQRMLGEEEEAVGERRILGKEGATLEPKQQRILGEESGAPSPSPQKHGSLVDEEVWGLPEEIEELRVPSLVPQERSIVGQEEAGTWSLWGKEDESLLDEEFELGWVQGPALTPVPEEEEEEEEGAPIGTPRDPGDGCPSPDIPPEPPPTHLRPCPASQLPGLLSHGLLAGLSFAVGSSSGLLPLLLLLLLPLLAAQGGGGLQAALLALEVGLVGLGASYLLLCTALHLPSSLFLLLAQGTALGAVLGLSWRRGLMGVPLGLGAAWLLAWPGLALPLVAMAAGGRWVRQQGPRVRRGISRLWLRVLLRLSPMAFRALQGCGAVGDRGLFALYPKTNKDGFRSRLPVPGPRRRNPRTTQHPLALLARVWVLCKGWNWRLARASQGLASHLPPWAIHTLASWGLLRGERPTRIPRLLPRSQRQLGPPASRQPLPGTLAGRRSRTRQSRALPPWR

[4] = molecular target: Calcium/calmodulin-dependent protein kinase type II subunit gamma (Homo sapiens) (UniProt Q13555); assay: Inhibition of CaMK2g Lys1 labeling site harbouring TSTQEYAAKIINTKK in human Huh-7 cells at 1 uM by KiNativ Profiling analysis relative to control; type: cell-based
[5] = molecular target: Serine/threonine-protein kinase 33 (Homo sapiens) (UniProt Q9BYT3); assay: Inhibition of STK33 (unknown origin) at 10 uM by Ambit Kinomescan binding assay
[6] = molecular target: Wee1-like protein kinase (Homo sapiens) (UniProt P30291); assay: Inhibition of Wee1 K2 labeling site in human Huh-7 cells at 10 uM by KiNativ Profiling analysis relative to control; type: cell-based
[7] = molecular target: Serine/threonine-protein kinase Nek6 (Homo sapiens) (UniProt Q9HC98); assay: Inhibition of NEK6 ACT labeling site in human Huh-7 cells at 1 uM by KiNativ Profiling analysis relative to control; type: cell-based
[8] = molecular target: Myosin-IIIb (Homo sapiens) (UniProt Q8WXR4); assay: Inhibition of MYO3B (unknown origin) at 10 uM by Ambit Kinomescan binding assay relative to control
[9] = molecular target: Protein kinase C delta type (Homo sapiens) (UniProt Q05655); assay: Inhibition of PRKCD (unknown origin) at 10 uM by Ambit Kinomescan binding assay
[10] = molecular target: STE20-like serine/threonine-protein kinase (Homo sapiens) (UniProt Q9H2G2); assay: Inhibition of SLK (unknown origin) at 10 uM by Ambit Kinomescan binding assay relative to control; values are per cent of control
[11] = molecular target: Dual specificity tyrosine-phosphorylation-regulated kinase 1B (Homo sapiens) (UniProt Q9Y463); assay: Inhibition of DYRK1B (unknown origin) at 1 uM by Ambit Kinomescan binding assay relative to control; values are per cent of control
[12] = molecular target: Ephrin type-B receptor 1 (Homo sapiens) (UniProt P54762); assay: Inhibition of EPHB1 (unknown origin) at 1 uM by Ambit Kinomescan binding assay relative to control; values are per cent of control
[13] = molecular target: Atypical kinase COQ8B, mitochondrial (Homo sapiens) (UniProt Q96D53); assay: Inhibition of ADCK4 (unknown origin) at 1 uM by Ambit Kinomescan binding assay relative to control

STE20-like serine/threonine-protein kinase (Homo sapiens), sequence (Q9H2G2 whole entry, looked up): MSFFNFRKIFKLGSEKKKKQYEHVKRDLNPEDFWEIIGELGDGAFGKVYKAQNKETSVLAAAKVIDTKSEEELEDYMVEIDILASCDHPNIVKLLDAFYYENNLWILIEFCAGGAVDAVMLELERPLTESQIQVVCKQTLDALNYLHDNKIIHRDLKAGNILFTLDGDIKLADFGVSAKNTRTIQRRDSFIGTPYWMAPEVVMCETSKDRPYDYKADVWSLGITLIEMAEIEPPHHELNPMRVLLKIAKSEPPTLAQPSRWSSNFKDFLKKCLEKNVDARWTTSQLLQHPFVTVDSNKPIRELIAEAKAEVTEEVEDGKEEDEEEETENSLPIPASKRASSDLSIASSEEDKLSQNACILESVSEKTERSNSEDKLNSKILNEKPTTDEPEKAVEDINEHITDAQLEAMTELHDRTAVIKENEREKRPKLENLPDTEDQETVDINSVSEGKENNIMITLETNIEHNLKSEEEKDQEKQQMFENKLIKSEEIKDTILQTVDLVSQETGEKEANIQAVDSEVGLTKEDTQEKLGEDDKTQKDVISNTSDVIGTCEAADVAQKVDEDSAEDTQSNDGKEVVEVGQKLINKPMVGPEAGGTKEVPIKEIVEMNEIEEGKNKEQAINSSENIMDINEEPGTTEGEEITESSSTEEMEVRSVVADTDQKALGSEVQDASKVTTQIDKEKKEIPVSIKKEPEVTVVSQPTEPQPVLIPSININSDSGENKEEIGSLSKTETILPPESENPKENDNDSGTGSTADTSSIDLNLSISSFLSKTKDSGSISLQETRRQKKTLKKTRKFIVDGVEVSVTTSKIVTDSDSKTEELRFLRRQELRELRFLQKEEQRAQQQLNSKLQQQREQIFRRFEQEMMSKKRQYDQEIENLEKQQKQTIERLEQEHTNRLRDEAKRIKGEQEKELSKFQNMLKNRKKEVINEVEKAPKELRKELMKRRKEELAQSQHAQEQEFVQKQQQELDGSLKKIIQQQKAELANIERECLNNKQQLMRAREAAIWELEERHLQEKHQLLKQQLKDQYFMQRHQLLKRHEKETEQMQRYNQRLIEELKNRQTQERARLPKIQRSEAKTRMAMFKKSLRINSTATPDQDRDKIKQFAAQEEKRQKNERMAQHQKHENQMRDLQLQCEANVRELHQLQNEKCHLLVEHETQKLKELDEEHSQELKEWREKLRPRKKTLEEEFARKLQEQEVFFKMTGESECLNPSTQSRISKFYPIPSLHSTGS
5'-AMP-activated protein kinase catalytic subunit alpha-2 (Homo sapiens), sequence (P54646 whole entry, looked up): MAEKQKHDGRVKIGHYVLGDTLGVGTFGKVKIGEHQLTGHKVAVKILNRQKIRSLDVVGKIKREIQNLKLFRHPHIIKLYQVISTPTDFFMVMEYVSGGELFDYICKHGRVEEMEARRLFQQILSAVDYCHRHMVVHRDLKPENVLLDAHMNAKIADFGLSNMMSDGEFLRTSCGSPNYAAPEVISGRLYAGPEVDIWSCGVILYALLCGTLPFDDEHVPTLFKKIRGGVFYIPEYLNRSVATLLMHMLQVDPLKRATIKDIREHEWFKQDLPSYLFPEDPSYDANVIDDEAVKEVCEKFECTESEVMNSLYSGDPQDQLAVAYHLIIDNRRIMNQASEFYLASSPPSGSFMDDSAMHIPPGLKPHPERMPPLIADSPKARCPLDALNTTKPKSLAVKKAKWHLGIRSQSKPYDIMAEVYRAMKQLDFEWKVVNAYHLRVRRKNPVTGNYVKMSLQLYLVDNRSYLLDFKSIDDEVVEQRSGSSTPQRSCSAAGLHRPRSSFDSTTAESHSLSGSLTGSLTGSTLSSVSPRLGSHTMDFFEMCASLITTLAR
Serine/threonine-protein kinase 33 (Homo sapiens), sequence (Q9BYT3 whole entry, looked up): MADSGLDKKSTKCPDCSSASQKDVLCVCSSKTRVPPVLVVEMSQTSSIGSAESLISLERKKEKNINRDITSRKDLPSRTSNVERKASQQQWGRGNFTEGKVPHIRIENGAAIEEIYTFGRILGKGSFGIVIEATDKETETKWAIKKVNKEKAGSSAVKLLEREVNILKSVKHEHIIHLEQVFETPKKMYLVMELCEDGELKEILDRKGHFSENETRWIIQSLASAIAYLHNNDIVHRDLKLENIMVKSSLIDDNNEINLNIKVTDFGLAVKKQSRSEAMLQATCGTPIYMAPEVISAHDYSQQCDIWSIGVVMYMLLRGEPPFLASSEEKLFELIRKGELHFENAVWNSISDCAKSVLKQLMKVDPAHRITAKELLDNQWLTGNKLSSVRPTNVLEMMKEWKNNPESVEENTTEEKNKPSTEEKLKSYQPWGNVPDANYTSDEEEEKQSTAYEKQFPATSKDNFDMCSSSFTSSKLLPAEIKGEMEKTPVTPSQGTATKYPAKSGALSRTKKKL
Serine/threonine-protein kinase Nek6 (Homo sapiens), sequence (Q9HC98 whole entry): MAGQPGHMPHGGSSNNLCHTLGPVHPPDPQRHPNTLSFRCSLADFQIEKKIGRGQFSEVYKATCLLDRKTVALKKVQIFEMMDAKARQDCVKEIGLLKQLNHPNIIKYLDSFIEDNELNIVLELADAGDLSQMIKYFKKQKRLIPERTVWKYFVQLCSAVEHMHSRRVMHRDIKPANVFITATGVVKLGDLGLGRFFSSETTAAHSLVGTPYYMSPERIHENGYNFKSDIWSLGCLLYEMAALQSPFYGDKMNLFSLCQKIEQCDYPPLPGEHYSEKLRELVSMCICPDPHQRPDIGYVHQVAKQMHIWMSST
Protein kinase C delta type (Homo sapiens), sequence (Q05655 whole entry, looked up): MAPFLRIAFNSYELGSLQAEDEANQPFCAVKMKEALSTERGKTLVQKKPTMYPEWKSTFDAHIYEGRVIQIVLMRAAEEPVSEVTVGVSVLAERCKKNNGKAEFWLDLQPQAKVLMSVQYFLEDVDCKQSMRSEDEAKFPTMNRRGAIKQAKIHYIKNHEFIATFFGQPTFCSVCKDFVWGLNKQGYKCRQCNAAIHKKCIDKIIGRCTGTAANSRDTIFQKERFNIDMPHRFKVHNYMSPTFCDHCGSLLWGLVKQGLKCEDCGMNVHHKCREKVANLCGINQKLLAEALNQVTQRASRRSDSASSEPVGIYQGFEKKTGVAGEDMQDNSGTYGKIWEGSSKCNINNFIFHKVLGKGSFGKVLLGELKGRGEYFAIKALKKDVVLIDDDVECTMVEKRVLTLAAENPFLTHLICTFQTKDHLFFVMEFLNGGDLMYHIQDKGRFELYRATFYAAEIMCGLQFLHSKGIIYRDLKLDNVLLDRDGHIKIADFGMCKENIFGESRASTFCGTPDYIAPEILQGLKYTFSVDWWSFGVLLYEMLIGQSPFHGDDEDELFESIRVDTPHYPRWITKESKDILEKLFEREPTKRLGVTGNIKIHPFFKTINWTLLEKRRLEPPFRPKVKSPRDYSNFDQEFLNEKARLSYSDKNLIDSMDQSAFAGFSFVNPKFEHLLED
Serine/threonine-protein kinase MARK2 (Homo sapiens), sequence (Q7KZI7 whole entry): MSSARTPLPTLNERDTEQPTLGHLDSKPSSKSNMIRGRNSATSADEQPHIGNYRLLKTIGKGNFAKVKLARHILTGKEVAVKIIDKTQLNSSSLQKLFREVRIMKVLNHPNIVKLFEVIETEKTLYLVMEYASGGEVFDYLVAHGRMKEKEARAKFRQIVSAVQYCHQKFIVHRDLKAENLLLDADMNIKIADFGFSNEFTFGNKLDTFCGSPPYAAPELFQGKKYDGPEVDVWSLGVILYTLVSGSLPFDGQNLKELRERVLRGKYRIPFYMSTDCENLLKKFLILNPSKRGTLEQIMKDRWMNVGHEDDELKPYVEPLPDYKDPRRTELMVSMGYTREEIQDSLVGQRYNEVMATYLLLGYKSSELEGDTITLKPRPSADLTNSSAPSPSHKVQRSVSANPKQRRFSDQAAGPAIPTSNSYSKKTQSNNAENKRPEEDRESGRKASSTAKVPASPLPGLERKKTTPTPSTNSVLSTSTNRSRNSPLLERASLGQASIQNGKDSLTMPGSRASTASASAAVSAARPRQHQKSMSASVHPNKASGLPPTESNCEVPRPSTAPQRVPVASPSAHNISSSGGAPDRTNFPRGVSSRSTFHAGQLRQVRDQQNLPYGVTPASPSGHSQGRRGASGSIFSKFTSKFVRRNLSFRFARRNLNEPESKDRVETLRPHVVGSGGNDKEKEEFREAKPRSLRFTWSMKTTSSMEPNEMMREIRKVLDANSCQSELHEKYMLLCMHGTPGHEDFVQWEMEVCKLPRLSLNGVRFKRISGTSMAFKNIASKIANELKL
Calcium/calmodulin-dependent protein kinase type II subunit gamma (Homo sapiens), sequence (Q13555 whole entry): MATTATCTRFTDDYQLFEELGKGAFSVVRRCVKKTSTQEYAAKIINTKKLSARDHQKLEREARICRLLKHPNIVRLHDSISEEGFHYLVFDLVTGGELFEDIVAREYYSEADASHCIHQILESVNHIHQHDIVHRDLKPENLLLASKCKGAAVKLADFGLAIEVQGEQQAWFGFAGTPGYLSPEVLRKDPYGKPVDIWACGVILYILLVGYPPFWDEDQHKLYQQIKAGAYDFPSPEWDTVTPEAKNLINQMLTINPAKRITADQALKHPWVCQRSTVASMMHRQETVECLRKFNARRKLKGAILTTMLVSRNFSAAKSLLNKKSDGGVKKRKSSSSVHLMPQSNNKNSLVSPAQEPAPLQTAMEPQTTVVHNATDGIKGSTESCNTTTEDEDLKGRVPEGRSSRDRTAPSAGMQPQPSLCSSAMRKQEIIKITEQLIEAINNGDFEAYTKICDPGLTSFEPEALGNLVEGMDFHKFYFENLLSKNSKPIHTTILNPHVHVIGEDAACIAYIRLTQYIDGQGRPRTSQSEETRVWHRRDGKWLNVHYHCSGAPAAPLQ

Compound: CNc1cc(Oc2cc(C(=O)Nc3cc(N4CCN(C)CC4)cc(C(F)(F)F)c3)ccc2C)ncn1
- inhibition [1]: -1.9%
- inhibition [2]: 8.7%
- inhibition [3]: 35.6%
- inhibition [4]: 31.8%

Compound: CCN1CCN(Cc2ccc(NC(=O)c3ccc(C)c(Oc4ccnc5[nH]ccc45)c3)cc2C(F)(F)F)CC1
- inhibition [5]: inactive
- inhibition [6]: -2.8%
- inhibition [7]: 15.5%
- inhibition [8]: 4.8%
- inhibition [9]: inactive
- residual activity [10]: 2%

Compound: CCN1CCN(Cc2ccc(NC(=O)c3ccc(C)c(/C=C/c4cnc5[nH]ccc5c4OC)c3)cc2C(F)(F)F)CC1
- residual activity [11]: 73%
- residual activity [12]: 11%
- inhibition [13]: 81%
